Consider ten molecules from PubChem BioAssay (NCI).

Molecules are shown by their SMILES.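 Five compound concentrations were applied to cells in 96-well plates for 48 hours; endpoints were derived by simple linear interpolation of the resulting dose-response curve. GI50 = concentration required for 50% inhibition of growth. At the TGI there is no net growth.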

Among the test systems are SF-539 CNS; NCI-H460 lung; SK-OV-3 ovarian; COLO 205 colon; OVCAR-4 ovarian; T-47D breast; A549 NSCLC; NCI/ADR-RES ovarian.
Common to all, as to test: inhibition of tumour cell growth, NCI panel, 48 h

Take `Cc1ccc(S(=O)(=O)c2nc(-c3ccccc3)oc2S(C)=O)cc1` (centres undefined): the GI50 with SF-539 CNS is 1.55 µM; with NCI-H460 lung, 2.92 µM; in the test on SK-OV-3 ovarian, 15.3 µM; in the test with COLO 205 colon, 1.72 µM; in the test with OVCAR-4 ovarian it was 1.91 µM; with T-47D breast, 1.23 µM. Moreover, the GI50 in the test on A549 NSCLC was 5.23 µM; in the test with NCI/ADR-RES ovarian, 2.14 µM. Moreover, the TGI was 3.01 µM with SF-539 CNS; 8.98 µM in the test on NCI-H460 lung; 28.6 µM in the test with SK-OV-3 ovarian; 3.56 µM with COLO 205 colon; 3.65 µM with OVCAR-4 ovarian; 3.17 µM with T-47D breast. Moreover, the results for the TGI in the test with A549 NSCLC and with NCI/ADR-RES ovarian were 18.5 µM and 4.89 µM, respectively.

Turning to `C1CC[N-]CC1.CC(=N\O)/C(C)=N/O.CC(=N\O)/C(C)=N/O.OC1[CH-]CCCC1.[Co+2]`, the GI50 was 25.5 µM with SF-539 CNS; 30.8 µM with NCI-H460 lung; above 100 µM in the test on SK-OV-3 ovarian; 19 µM in the test with COLO 205 colon; 72.7 µM in the test with OVCAR-4 ovarian; 16.5 µM with T-47D breast. In addition, the GI50 in the test on A549 NSCLC is 58.5 µM; with NCI/ADR-RES ovarian, above 100 µM. The TGI is 71.1 µM with SF-539 CNS; above 100 µM in the test with NCI-H460 lung; above 100 µM in the test on SK-OV-3 ovarian; 34.5 µM in the test with COLO 205 colon; above 100 µM in the test on OVCAR-4 ovarian; 69.5 µM with T-47D breast. The TGI with A549 NSCLC and with NCI/ADR-RES ovarian was above 100 µM in each case.

On to `COC(=O)C1=C(C(=O)OC)C2(C)C=CC1O2` (centres undefined), for which the TGI in the test with SF-539 CNS is 33 µM; in the test on NCI-H460 lung it was above 100 µM; in the test with SK-OV-3 ovarian, above 100 µM; with COLO 205 colon, 32.6 µM; with OVCAR-4 ovarian, 27.2 µM; in the test with T-47D breast it was 13 µM. Also, the figures for the TGI in the test with A549 NSCLC and with NCI/ADR-RES ovarian were above 100 µM and 37.6 µM, respectively.

Consider `CCOc1c(N=Nc2ccccc2Cl)c(-c2ccccc2)nn1C(=S)S`, for which the TGI in the test with SF-539 CNS is 50.4 µM; in the test on NCI-H460 lung, above 100 µM; with SK-OV-3 ovarian, above 100 µM; in the test on COLO 205 colon, 47.5 µM; in the test with OVCAR-4 ovarian, above 100 µM; in the test with T-47D breast, above 100 µM. The TGI with A549 NSCLC and with NCI/ADR-RES ovarian was above 100 µM in each case.

Regarding `O=c1/c(=C\c2ccc(F)cc2)sc2n1C(c1ccc(F)cc1)C1=C(N=2)c2ccc3ccccc3c2OCC1` (centres undefined), the GI50 with SF-539 CNS is above 100 µM; in the test on NCI-H460 lung, 14.2 µM; with SK-OV-3 ovarian, above 100 µM; in the test with COLO 205 colon, above 100 µM; with OVCAR-4 ovarian it was above 100 µM; in the test with T-47D breast, above 100 µM. The GI50 with A549 NSCLC and in the test with NCI/ADR-RES ovarian was above 100 µM in each case. Besides, the TGI in the test with SF-539 CNS, in the test on NCI-H460 lung, in the test on SK-OV-3 ovarian, in the test on COLO 205 colon, in the test with OVCAR-4 ovarian and with T-47D breast was above 100 µM in each case. In addition, the TGI in the test on A549 NSCLC and in the test on NCI/ADR-RES ovarian was above 100 µM each time.

Regarding `OCc1ccc(-c2cscc2-c2ccc(CO)o2)o1`, the GI50 in the test on SF-539 CNS was above 100 µM; with NCI-H460 lung it was 1.34 µM; in the test on SK-OV-3 ovarian, 8.98 µM; with COLO 205 colon, 1.97 µM; in the test on OVCAR-4 ovarian, 4.79 µM; in the test with T-47D breast, 1.46 µM. For the same molecule, the GI50 in the test with A549 NSCLC is 3.89 µM; in the test with NCI/ADR-RES ovarian it was 32.9 µM. For the same molecule, the TGI in the test on SF-539 CNS was above 100 µM; in the test on NCI-H460 lung, 5.92 µM; in the test with SK-OV-3 ovarian, 50.3 µM; with COLO 205 colon, 4.83 µM; in the test with OVCAR-4 ovarian it was 49.4 µM; with T-47D breast, 9.65 µM. For the same molecule, the results for the TGI in the test on A549 NSCLC and in the test with NCI/ADR-RES ovarian were 30.6 µM and above 100 µM, respectively.

In the case of `CN(C)c1nc2ccccc2c2c1c1c(n2Cc2ccccc2)-c2ccccc2C1=O`, the GI50 is above 100 µM in the test with SF-539 CNS; above 100 µM in the test with NCI-H460 lung; above 100 µM in the test on SK-OV-3 ovarian; above 100 µM in the test on COLO 205 colon; 31.3 µM in the test on OVCAR-4 ovarian; 55.6 µM with T-47D breast. The GI50 in the test with A549 NSCLC and in the test with NCI/ADR-RES ovarian was above 100 µM in each case. The TGI in the test on SF-539 CNS, with NCI-H460 lung, in the test on SK-OV-3 ovarian, in the test with COLO 205 colon, in the test on OVCAR-4 ovarian and with T-47D breast was above 100 µM each time. Moreover, the TGI in the test with A549 NSCLC and with NCI/ADR-RES ovarian was above 100 µM in each case.

With `S=c1nc(N/N=C/c2ccco2)c2cn[nH]c2[nH]1`, the GI50 with SF-539 CNS is 43.3 µM; with NCI-H460 lung, 17.9 µM; in the test with SK-OV-3 ovarian it was 92.7 µM; with COLO 205 colon it was 29.5 µM; in the test on OVCAR-4 ovarian, above 100 µM; in the test with T-47D breast, 1.95 µM. Also, the GI50 with A549 NSCLC was 20 µM; in the test with NCI/ADR-RES ovarian, above 100 µM. Also, the TGI in the test with SF-539 CNS was above 100 µM; with NCI-H460 lung, above 100 µM; in the test with SK-OV-3 ovarian, above 100 µM; in the test with COLO 205 colon, 90.8 µM; in the test with OVCAR-4 ovarian, above 100 µM; with T-47D breast, 48.1 µM. Moreover, the TGI in the test with A549 NSCLC and in the test with NCI/ADR-RES ovarian was above 100 µM throughout.

Consider `Cc1c2cc(Cl)c3ccccc3c2c[n+]2ccccc12`, for which the GI50 in the test with SF-539 CNS is 1.71 µM; in the test on NCI-H460 lung, 4.12 µM; in the test with SK-OV-3 ovarian, 10.3 µM; in the test on COLO 205 colon it was 1.83 µM; in the test with OVCAR-4 ovarian, 2.71 µM; in the test with T-47D breast, 0.544 µM. Moreover, the GI50 in the test with A549 NSCLC is 8.54 µM; in the test with NCI/ADR-RES ovarian, above 100 µM. Besides, the TGI in the test on SF-539 CNS was found to be 9.35 µM; with NCI-H460 lung it was 16.9 µM; with SK-OV-3 ovarian, 53.5 µM; in the test on COLO 205 colon, 10.2 µM; in the test on OVCAR-4 ovarian it was 17.5 µM; with T-47D breast, 2.53 µM. Also, the TGI in the test on A549 NSCLC and in the test with NCI/ADR-RES ovarian was above 100 µM throughout.

For the molecule `COC(=O)COc1ccc(/C=C2/N=C(c3ccccc3)N(c3c(C)n(C)n(-c4ccccc4)c3=O)C2=O)cc1`, the GI50 with SF-539 CNS is 16.1 µM; in the test with NCI-H460 lung it was 26 µM; in the test with SK-OV-3 ovarian it was 17.3 µM; with COLO 205 colon it was 16 µM; in the test with OVCAR-4 ovarian, 26.5 µM; in the test with T-47D breast, 21.3 µM. For the same molecule, the GI50 with A549 NSCLC was above 100 µM; with NCI/ADR-RES ovarian it was 54.8 µM. Also, the TGI in the test with SF-539 CNS is 30.2 µM; with NCI-H460 lung it was above 100 µM; in the test on SK-OV-3 ovarian, 37.9 µM; in the test with COLO 205 colon it was 35.9 µM; in the test on OVCAR-4 ovarian it was 70.9 µM; in the test on T-47D breast, 61.2 µM. The TGI with A549 NSCLC and in the test on NCI/ADR-RES ovarian was above 100 µM in each case.
